# Test results taken from patent US9758492B2, “IDO inhibitors” (Bristol-Myers Squibb Company, priority 2013, dated 2017).
# Columns and labels:
# IDO = IDO (Homo sapiens, UniProt P14902); assay: LLE_IDO_ABS_DR (IDO assay)
# Human IDO1 = target: T1, Human IDO1 (Homo sapiens, UniProt P14902); assay: IDO Kynurenine Assay with Human IDO1/HEK293 Cells; format: cell-based; conditions: read-out: HEK human IDO-1 (IC50)
# T1 construct: expressed in transfected cells; host or cells: HEK293
# Method in brief: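 HEK293 cells stably expressing human IDO1, in phenol red-free RPMI/10% FBS, exposed to compound for 20 h at 37 °C. Stopped with 0.2% TCA (50 °C, 30 min); kynurenine in supernatant detected with Ehrlich reagent, absorbance 490 nm.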
# Chain of IDO (P14902 whole entry): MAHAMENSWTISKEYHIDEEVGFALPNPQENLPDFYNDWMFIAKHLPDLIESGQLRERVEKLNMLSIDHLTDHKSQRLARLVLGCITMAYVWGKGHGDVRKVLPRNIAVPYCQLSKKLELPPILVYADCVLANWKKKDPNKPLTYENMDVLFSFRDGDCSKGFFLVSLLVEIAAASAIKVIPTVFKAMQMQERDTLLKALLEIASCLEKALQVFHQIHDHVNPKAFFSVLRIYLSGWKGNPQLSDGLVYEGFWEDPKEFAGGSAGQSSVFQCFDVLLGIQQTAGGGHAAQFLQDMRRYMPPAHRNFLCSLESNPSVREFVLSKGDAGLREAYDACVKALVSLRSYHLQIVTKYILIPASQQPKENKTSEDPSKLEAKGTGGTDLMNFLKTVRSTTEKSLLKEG
# T1 sequence (P14902 whole entry): as above
Compound,IC50 (IDO) [nM],IC50 (Human IDO1) [nM]
"Cc1ccc(NC(=O)Nc2cc(-c3cc(F)ccc3C(=O)O)ccc2N2CCCc3ccccc32)cc1 [Example 373, 4′-(3,4-Dihydroquinolin-1(2H)-yl)-5-fluoro-3′-(3-(p-tolyl)ureido)-[1,1′-biphenyl]-2-carboxylic acid]",3340,4000
"CC(C)CN(CC(C)C)c1ccc(-c2ccccc2-c2nnn[nH]2)cc1NC(=O)Nc1ccc(Br)cc1F [Example 38, 1-(4-Bromo-2-fluorophenyl)-3-(4-(diisobutylamino)-2′-(1H-tetrazol-5-yl)biphenyl-3-yl)urea]",1.84,1.78
"C=CC(c1ccccc1)c1cc(-c2ccccc2-c2nnn[nH]2)cc(NC(=O)Nc2ccc(C)cc2)c1NCC(C)C (stereo not shown) [Example 358, 1-(4-(isobutylamino)-5-(1-phenylallyl)-2′-(1H-tetrazol-5-yl)-[1,1′-biphenyl]-3-yl)-3-(p-tolyl)urea]",20,350
Cc1ccc(NC(=O)Nc2cc(-c3ccccc3C(=O)O)ccc2N(CC(C)C)C2CCOCC2)cc1 [Example 378],60,70
Cc1ccc(NC(=O)Nc2cc(-c3ccccc3-c3nnn[nH]3)ccc2N(CC(C)C)C2CCOCC2)cc1 [Example 379],20,30
"Cc1ccc(NC(=O)Nc2cc(-c3ccc(Cl)cc3C(=O)O)ccc2N(CC(C)C)CC(C)C)cc1 [Example 127, 4-chloro-4′-(diisobutylamino)-3′-(3-p-tolylureido) biphenyl-2-carboxylic acid]",130,80
"O=C(Nc1ccc(F)cc1F)Nc1cc(-c2ccccc2-c2nnn[nH]2)ccc1N(CCC(F)(F)F)Cc1ccc(OC(F)(F)F)cc1 [Example 504, 1-(2′-(1H-Tetrazol-5-yl)-4-((4-(trifluoromethoxy)benzyl)(3,3,3-trifluoropropyl)amino)-[1,1′-biphenyl]-3-yl)-3-(2,4-difluorophenyl)urea]",0.4,5.14
Cc1ccc(NC(=O)Nc2cc(-c3cc(F)ccc3C(=O)O)ccc2N(CC(C)C)CC2CC(F)(F)C2)cc1 [Example 380],50,70
C=C(C)CN(CC(F)(F)F)c1ccc(-c2ccccc2-c2nnn[nH]2)cc1NC(=O)Nc1ccc(C)cc1 [Example 472],10,9.13
"Cc1ccc(NC(=O)Nc2cc(-c3cc(F)ccc3-c3nnn[nH]3)c(F)cc2N(CC(C)C)C2CCCCC2)cc1 [Example 355, 1-(4-(cyclohexyl(isobutyl)amino)-5′,6-difluoro-2′-(1H-tetrazol-5-yl)-[1,1′-biphenyl]-3-yl)-3-(p-tolyl)urea]",2.37,3.29
"C=CC(c1ccccc1)c1cc(-c2ccccc2-c2nnn[nH]2)cc(NC(=O)Nc2ccccc2F)c1NCC(C)C (stereo not shown) [Example 357, 1-(2-fluorophenyl)-3-(4-(isobutylamino)-5-(1-phenylallyl)-2′-(1H-tetrazol-5-yl)-[1,1′-biphenyl]-3-yl)urea]",40,320
Cc1ccc(NC(=O)Nc2cc(-c3ccccc3-c3nnn[nH]3)ccc2N(CCC(F)(F)F)Cc2ccc(Cl)cc2)cc1 [Example 16],10,20
"O=C(Nc1ccc(C(F)(F)F)cc1F)Nc1cc(-c2ccccc2-c2nnn[nH]2)ccc1N1CCC(c2ccccc2)C1 (racemic) [Example 370, (±)-1-(2-Fluoro-4-(trifluoromethyl)phenyl)-3-(4-(3-phenylpyrrolidin-1-yl)-2′-(1H-tetrazol-5-yl)-[1,1′-biphenyl]-3-yl)urea]",50,70
"O=C(Nc1ccc(C2CC2)cc1)Nc1cc(-c2ccccc2-c2nnn[nH]2)ccc1N(CCCC(F)(F)F)Cc1ccc(Cl)cc1 [Example 349, 1-(4-((4-chlorobenzyl)(4,4,4-trifluorobutyl)amino)-2′-(1H-tetrazol-5-yl)-[1,1′-biphenyl]-3-yl)-3-(4-cyclopropylphenyl)urea]",7.49,130
Cc1ccc(NC(=O)Nc2cc(-c3cc(F)ccc3C(=O)O)c(F)cc2N(CC(C)C)C2CCCCC2)cc1 [Example 231],2.73,2.13
C=C(C)CN(CC(F)(F)F)c1ccc(-c2cc(F)ccc2C(=O)O)cc1NC(=O)Nc1ccc(C)cc1 [Example 473],70,60

Compound,IC50 (IDO) [nM],IC50 (Human IDO1) [nM]
CC(C)CN(CC(C)C)c1ccc(-c2cc(F)ccc2-c2nnn[nH]2)cc1NC(=O)Nc1ccccc1F [Example 484],2.5,10
"Cc1ccc(NC(=O)Nc2cc(-c3ccccc3C(=O)O)ccc2N(CC(C)C)C2CCC(F)(F)CC2)cc1 [Example 512, 4′-((4,4-Difluorocyclohexyl)(isobutyl)amino)-3′-(3-(p-tolyl)ureido)-[1,1′-biphenyl]-2-carboxylic acid]",2.88,50
"O=C(Nc1ccc(F)cc1F)Nc1cc(-c2ccccc2-c2nnn[nH]2)ccc1N(CCC(F)(F)F)Cc1ccc(F)cc1C(F)(F)F [Example 340, 1-(2,4-difluorophenyl)-3-(4-((4-fluoro-2-(trifluoromethyl)benzyl) (3,3,3-trifluoropropyl)amino)-2′-(1H-tetrazol-5-yl)-[1,1′-biphenyl]-3-yl)urea]",30,40
"O=C(Nc1ccc(C2CC2)cc1)Nc1cc(-c2ccccc2-c2nnn[nH]2)ccc1N(CCC(F)(F)F)Cc1ccc(OC(F)(F)F)cc1 [Example 302, 1-(2′-(1H-tetrazol-5-yl)-4-((4-(trifluoromethoxy)benzyl)(3,3,3-trifluoropropyl)amino)-[1,1′-biphenyl]-3-yl)-3-(4-cyclopropylphenyl)urea]",3.26,5.53
Cc1ccc(NC(=O)Nc2cc(-c3cc(F)ccc3-c3nnn[nH]3)ccc2N(CC(C)C)CC(C)C)cc1 [Example 483],6.12,7.33
"O=C(Nc1ccc(OC(F)(F)F)cc1)Nc1cc(-c2ccccc2-c2nnn[nH]2)ccc1N(CCC(F)(F)F)Cc1ccc(OC(F)(F)F)cc1 [Example 503, 1-(2′-(1H-Tetrazol-5-yl)-4-((4-(trifluoromethoxy)benzyl)(3,3,3-trifluoropropyl)amino)-[1,1′-biphenyl]-3-yl)-3-(4-(trifluoromethoxy)phenyl)urea]",2.24,10
"Cc1ccc(NC(=O)Nc2cc(-c3ccccc3C(=O)O)cc(Cl)c2N(CC(C)C)CC(C)C)cc1 [Example 40, 3′-Chloro-4′-(diisobutylamino)-5′-(3-p-tolylureido)biphenyl-2-carboxylic acid]",3.79,10
"Cc1ccc(NC(=O)Nc2cc(-c3ccccc3-c3nnn[nH]3)ccc2N2CCC(c3ccccc3)C2)cc1 (racemic) [Example 367, (±)-1-(4-(3-Phenylpyrrolidin-1-yl)-2′-(1H-tetrazol-5-yl)-[1,1′-biphenyl]-3-yl)-3-(p-tolyl)urea]",20,10
"O=C(Nc1ccc(C2CC2)c(F)c1)Nc1cc(-c2ccccc2-c2nnn[nH]2)ccc1N(CCC(F)(F)F)Cc1ccc(F)cc1C(F)(F)F [Example 352, 1-(4-cyclopropyl-3-fluorophenyl)-3-(4-((4-fluoro-2-(trifluoro-methyl)benzyl) (3,3,3-trifluoropropyl)amino)-2′-(1H-tetrazol-5-yl)-[1,1′-biphenyl]-3-yl)urea]",90,220
"Cc1ccc(NC(=O)Nc2cc(-c3ccccc3-c3nnn[nH]3)cc(Cl)c2N(CC(C)C)CC(C)C)cc1 [Example 39, 1-(5-Chloro-4-(diisobutylamino)-2′-(1H-tetrazol-5-yl)biphenyl-3-yl)-3-p-tolylurea]",1,2.37
"O=C(Nc1ccc(OC(F)(F)F)cc1)Nc1cc(-c2ccccc2-c2nnn[nH]2)ccc1N(CCCC(F)(F)F)Cc1ccc(Cl)cc1 [Example 322, 1-(4-((4-chlorobenzyl)(4,4,4-trifluorobutyl)amino)-2′-(1H-tetrazol-5-yl)-[1,1′-biphenyl]-3-yl)-3-(4-(trifluoromethoxy)phenyl)urea]",60,220
"CC(C)CN(c1ccc(-c2ccccc2-c2nnn[nH]2)cc1NC(=O)Nc1ccc(OC(F)(F)F)cc1)C1CCC(F)(F)CC1 [Example 514, 1-(4((4,4-Difluorocyclohexyl)(isobutyl)amino)-2′-(1H-tetrazol-5-yl)-[1,1′-biphenyl]-3-yl)-3-(4-(trifluoromethoxy)phenyl)urea]",10,20
Cc1cc(NC(=O)Nc2cc(-c3ccccc3-c3nnn[nH]3)ccc2N(CC(C)C)CC2CC(F)(F)C2)on1 [Example 382],500,350
"O=C(Nc1ccc(C2CC2)cc1)Nc1cc(-c2ccccc2-c2nnn[nH]2)ccc1N(CCC(F)(F)F)Cc1ccc(F)cc1C(F)(F)F [Example 299, 1-(4-cyclopropylphenyl)-3-(4-((4-fluoro-2-(trifluoromethyl)benzyl) (3,3,3-trifluoropropyl)amino)-2′-(1H-tetrazol-5-yl)-[1,1′-biphenyl]-3-yl)urea]",20,50
"Cc1ccc(NC(=O)Nc2cc(-c3ccccc3-c3nnn[nH]3)ccc2N(CCC(F)(F)F)Cc2ccc(F)cc2C(F)(F)F)cc1 [Example 502, 1-(4-((4-fluoro-2-(trifluoromethyl)benzyl)(3,3,3-trifluoropropyl)amino)-2′-(1H-tetrazol-5-yl)-[1,1′-biphenyl]-3-yl)-3-(p-tolyl)urea]",5.01,20
"O=C(Nc1ccc(F)cc1F)Nc1cc(-c2ccccc2-c2nnn[nH]2)ccc1N(CCC(F)(F)F)Cc1ccccn1 [Example 344, 1-(2,4-difluorophenyl)-3-(4-((pyridin-2-ylmethyl)(3,3,3-trifluoropropyl)amino)-2′-(1H-tetrazol-5-yl)-[1,1′-biphenyl]-3-yl) urea]",30,50
